Measurements as given in US10980788B2, “Therapy for treating malignancies” (Agios Pharmaceuticals, Inc., priority 2018, dated 2021).
Where two headings read alike, the source gives them in different places.

Experiments:
[1] = Food effect on pharmacokinetics of COMPOUND 1 in healthy subjects (phase 1, open-label, randomized, two-period crossover); assay type: in vivo, human; conditions: for Tmax / half-life / AUC(0-inf) / AUC(0-t) / Cmax: plasma, single oral dose 500 mg
Protocol: The food effect on COMPOUND 1 PK following administration of a single oral dose of 500 mg of COMPOUND 1 in healthy subjects aged 18-55 years was evaluated in a was a phase 1, open-label, randomized, two-period crossover study.
The study was conducted according to the United States Food and Drug Administration (FDA) 2002 Guidance for Industry “Food-Effect Bioavailability and Fed Bioequivalence Studies”.
Treatments A and B, each comprising a single oral dose of 500 mg of COMPOUND 1, were administered as shown in Table 1. • A (fasted): two 250 mg tablets administered after an overnight fast (approximately 10 hr). • B (fed): two 250 mg tablets administered after a standardized high-fat breakfast, consumed within 30 minutes prior to COMPOUND 1 dosing.
The standardized FDA high-fat content meal contains the equivalent of ˜150 protein calories, ˜250 carbohydrate calories, and ˜500-600 fat calories, and comprises two eggs fried in butter, two strips of bacon, two slices of toast with butter, four ounces of hash brown potatoes (fried with butter), and eight ounces (240 mL) of whole milk.
Of the 30 subjects enrolled, 15 were randomized to sequence AB and 15 were randomized to sequence BA.
Blood samples for the analysis of COMPOUND 1 concentrations were collected predose and 0.5, 1, 2, 3, 4, 6, 9, 12, 24, 48, 72, 120, 168, 240, 336, and 504 hr postdose. Plasma concentrations of COMPOUND 1 were determined using a validated liquid chromatography with tandem mass spectrometry method. PK parameters were calculated using WinNonlin (Pharsight Corporation, Version 6.2.1). Linear mixed model analysis was performed on natural logarithm (In) transformed maximum observed concentration (Cmax), area under the concentration-time curve from Hour 0 to the last measurable concentration (AUC0-t), and area under the concentration-time curve extrapolated to infinity (AUC0-∞). The analyses were performed using the SAS MIXED procedure. […] Inter-subject variability was determined using the geometric coefficient of variation percent (CV %).

[2] = Safety and tolerability of a single oral dose of 500 mg COMPOUND 1 in healthy subjects; assay type: in vivo, human; conditions: single oral dose of 500 mg, fed and fasted conditions
Protocol: Safety and tolerability were also evaluated for a single oral dose of 500 mg of COMPOUND 1.
Incidence of adverse events and serious adverse events was assessed.

[3] = fed condition (test) versus fasted condition (reference), 500 mg, n = 27
[4] = high-fat meal compared with fasted condition, 500 mg single oral dose
[5] = human, po, 500 mg, fasted, n = 29, geometric mean
[6] = human, po, 500 mg, fed (high-fat meal), n = 27, geometric mean

- Geometric mean ratio (%) AUC0-t [1, 3]: 125.6%
- Geometric mean ratio (%) AUC0-∞ [1, 3]: 124.3%
- Geometric mean ratio (%) Cmax [1, 3]: 197.8%
- Increase in extent of exposure as assessed by AUC0-t [1, 4]: 25.6%
- Increase in extent of exposure as assessed by AUC0-∞ [1, 4]: 24.3%
- Increase in mean Cmax [1, 4]: ~2 fold
- Increase in AUC ([1]; high-fat meal prior to dosing compared with fasted, 500 mg single oral dose): ~25%
- Tmax ([1]; human, po, 500 mg, fasted, n = 29, median, read-out: Tmax): 3 h
- Tmax ([1]; human, po, 500 mg, fed (high-fat meal), n = 27, median, read-out: Tmax): 3 h
- half-life ([1]; human, po, 500 mg, fasted, n = 29, arithmetic mean): 55.4 h
- AUC(0-inf) [1, 5]: 143 µg·h/mL
- AUC(0-t) [1, 5]: 136 µg·h/mL
- Cmax [1, 5]: 2270 ng/mL
- half-life ([1]; human, po, 500 mg, fed (high-fat meal), n = 27, arithmetic mean): 53.2 h
- AUC(0-inf) [1, 6]: 174 µg·h/mL
- AUC(0-t) [1, 6]: 166 µg·h/mL
- Cmax [1, 6]: 4490 ng/mL
- Tmax ([1]; fasted, n = 29, median): 3.03 h
SMILES: N#Cc1ccnc(N2C(=O)CC[C@H]2C(=O)N(c2cncc(F)c2)[C@H](C(=O)NC2CC(F)(F)C2)c2ccccc2Cl)c1 [COMPOUND 1, (S)—N—((S)-1-(2-chlorophenyl)-2-((3,3-difluorocyclobutyl)amino)-2-oxoethyl)-1-(4-cyanopyridin-2-yl)-N-(5-fluoropyridin-3-yl)-5-oxopyrrolidine-2-carboxamide]
- Safety and tolerability [2]: safe and well tolerated
